We go through 29 molecules from patent US7524869B2, “Taxanes having a C10 ester substituent” (Florida State University Research Foundation, Inc., priority 2000, dated 2009).

Molecules are shown by their SMILES. Read-outs that look alike come from different tables or passages of the source.

Data set [1] relates to HCT116. As to the kind of experiment: In vitro cytotoxicity measured by the cell colony formation assay. Type of data set: cell-based. The following applies: read-out: IN VITRO ID 50 (nm) HCT116.
[2] abbreviates: HCT116 cells, 72 h drug incubation, colonies counted after 7 days, ID50 = drug concentration producing 50% inhibition of colony formation.

In turn, `CCC(=O)O[C@H]1C(=O)[C@@]2(C)C([C@H](OC(=O)c3ccccc3)[C@]3(O)C[C@H](OC(=O)[C@H](O)[C@@H](NC(=O)c4ccccc4)c4cccs4)C(C)=C1C3(C)C)[C@]1(OC(C)=O)CO[C@@H]1C[C@@H]2O` (stereo partly drawn) [Compound 0687, 3′-Desphenyl-3′-(2-thienyl)-10-propionyl-10-deacetyl taxol] returned a melting point of 154 to 155 °C. The IC50 in data set [1] (Homo sapiens, HCT-116) was below 1 nM.
Consider `CC(=O)O[C@@]12CO[C@@H]1C[C@H](O)[C@@]1(C)C(=O)[C@H](OC(=O)C=C(C)C)C3=C(C)[C@@H](OC(=O)[C@H](O)[C@@H](NC(=O)OC(C)(C)C)c4ccncc4)C[C@@](O)([C@@H](OC(=O)c4ccccc4)C12)C3(C)C` (stereo partly drawn) [Compound 2472], for which, in data set [1] (setting [2]), the IC50 is below 1 nM.
Regarding `CC(=O)O[C@@]12CO[C@@H]1C[C@H](O)[C@@]1(C)C(=O)[C@H](OC(=O)C3CC3)C3=C(C)[C@@H](OC(=O)[C@H](O)[C@@H](NC(=O)c4ccccc4)c4ccc([N+](=O)[O-])cc4)C[C@@](O)([C@@H](OC(=O)c4ccccc4)C12)C3(C)C` (stereo partly drawn) [Compound 2869], in data set [1] (setting [2]), the IC50 is below 10 nM.
On the same count and under the same terms, the value for `CCCC(=O)O[C@H]1C(=O)[C@@]2(C)C([C@H](OC(=O)c3ccccc3)[C@]3(O)C[C@H](OC(=O)[C@H](O)[C@@H](NC(=O)c4ccccc4)c4ccco4)C(C)=C1C3(C)C)[C@]1(OC(C)=O)CO[C@@H]1C[C@@H]2O` (stereo partly drawn) [Compound 3204] was below 1 nM; that for `CCC(=O)O[C@H]1C(=O)[C@@]2(C)C([C@H](OC(=O)c3ccccc3)[C@]3(O)C[C@H](OC(=O)[C@H](O)[C@@H](NC(=O)c4ccccc4)C4CC4)C(C)=C1C3(C)C)[C@]1(OC(C)=O)CO[C@@H]1C[C@@H]2O` (stereo partly drawn) [Compound 0706] was below 1 nM; that for `CCOC(=O)N[C@@H](c1cccs1)[C@@H](O)C(=O)O[C@H]1C[C@@]2(O)[C@@H](OC(=O)c3ccccc3)C3[C@](C)(C(=O)[C@H](OC(=O)CC)C(=C1C)C2(C)C)[C@@H](O)C[C@H]1OC[C@@]31OC(C)=O` (stereo partly drawn) [Compound 3370] was below 1 nM.
As to `CCOC(=O)N[C@@H](c1ccco1)[C@@H](O)C(=O)O[C@H]1C[C@@]2(O)[C@@H](OC(=O)c3ccccc3)C3[C@](C)(C(=O)[C@H](OC(=O)CC)C(=C1C)C2(C)C)[C@@H](O)C[C@H]1OC[C@@]31OC(C)=O` (stereo partly drawn) [Compound 3535], in data set [1] (setting [2]), the IC50 is below 1 nM.
Take `CC(=O)O[C@@]12CO[C@@H]1C[C@H](O)[C@@]1(C)C(=O)[C@H](OC(=O)C3CC3)C3=C(C)[C@@H](OC(=O)[C@H](O)[C@@H](NC(=O)c4cccs4)c4cccs4)C[C@@](O)([C@@H](OC(=O)c4ccccc4)C12)C3(C)C` (stereo partly drawn) [Compound 3453]: the IC50 in data set [1] (setting [2]) was below 1 nM.
On the same count and under the same terms, the value for `CC(=O)O[C@@]12CO[C@@H]1C[C@H](O)[C@@]1(C)C(=O)[C@H](OC(=O)C3CC3)C3=C(C)[C@@H](OC(=O)[C@H](O)[C@@H](NC(=O)c4ccccc4)C4CC4)C[C@@](O)([C@@H](OC(=O)c4ccccc4)C12)C3(C)C` (stereo partly drawn) [Compound 0923] was below 1 nM; that for `CC(=O)O[C@@]12CO[C@@H]1C[C@H](O)[C@@]1(C)C(=O)[C@H](OC(=O)C3CC3)C3=C(C)[C@@H](OC(=O)[C@H](O)[C@@H](NC(=O)c4ccccc4)c4ccccc4)C[C@@](O)([C@@H](OC(=O)c4ccccc4)C12)C3(C)C` (stereo partly drawn) [Compound 0937] was below 10 nM; that for `CCC(=O)O[C@H]1C(=O)[C@@]2(C)C([C@H](OC(=O)c3ccccc3)[C@]3(O)C[C@H](OC(=O)[C@H](O)[C@@H](NC(=O)c4ccccc4)c4ccc([N+](=O)[O-])cc4)C(C)=C1C3(C)C)[C@]1(OC(C)=O)CO[C@@H]1C[C@@H]2O` (stereo partly drawn) [Compound 0732] was below 10 nM.
The same measure, in the same setting: to `CC(=O)O[C@@]12CO[C@@H]1C[C@H](O)[C@@]1(C)C(=O)[C@H](OC(=O)C3CC3)C3=C(C)[C@@H](OC(=O)[C@H](O)[C@@H](NC(=O)c4ccco4)c4cccs4)C[C@@](O)([C@@H](OC(=O)c4ccccc4)C12)C3(C)C` (stereo partly drawn) [Compound 3297] belongs below 1 nM.
With `CCC(=O)O[C@H]1C(=O)[C@@]2(C)C([C@H](OC(=O)c3ccccc3)[C@]3(O)C[C@H](OC(=O)[C@H](O)[C@@H](NC(=O)OC(C)(C)C)c4ccc([N+](=O)[O-])cc4)C(C)=C1C3(C)C)[C@]1(OC(C)=O)CO[C@@H]1C[C@@H]2O` (stereo partly drawn) [Compound 0602], the IC50 in data set [1] (setting [2]) is below 1 nM.
Still for that read-out and setting: the value for `CCCC(=O)O[C@H]1C(=O)[C@@]2(C)C([C@H](OC(=O)c3ccccc3)[C@]3(O)C[C@H](OC(=O)[C@H](O)[C@@H](NC(=O)OCC(C)C)c4ccoc4)C(C)=C1C3(C)C)[C@]1(OC(C)=O)CO[C@@H]1C[C@@H]2O` (stereo partly drawn) [Compound 4704] was below 10 nM.
The same measure, in the same setting: to `CCC(=O)O[C@H]1C(=O)[C@@]2(C)C([C@H](OC(=O)c3ccccc3)[C@]3(O)C[C@H](OC(=O)[C@H](O)[C@@H](NC(=O)OC(C)(C)C)c4ccoc4)C(C)=C1C3(C)C)[C@]1(OC(C)=O)CO[C@@H]1C[C@@H]2O` (stereo partly drawn) [Compound 0549] belongs below 10 nM; to `CC(=O)OC12COC1CC(O)C1(C)C(=O)C(OC(=O)c3cccs3)C3=C(C)C(OC(=O)C(O)C(NC(=O)OC(C)(C)C)c4ccsc4)CC(O)(C(OC(=O)c4ccccc4)C21)C3(C)C` (stereo not drawn) [Compound 1939], below 1 nM; to `CC(=O)OC12COC1CC(O)C1(C)C(=O)C(OC(=O)c3ccco3)C3=C(C)C(OC(=O)C(O)C(NC(=O)OC(C)(C)C)c4ccoc4)CC(O)(C(OC(=O)c4ccccc4)C21)C3(C)C` (stereo not drawn) [Compound 2159], below 1 nM.
The same measure, in the same setting: the value for `C/C=C/C(=O)O[C@H]1C(=O)[C@@]2(C)C([C@H](OC(=O)c3ccccc3)[C@]3(O)C[C@H](OC(=O)[C@H](O)[C@@H](NC(=O)OC(C)(C)C)c4ccccn4)C(C)=C1C3(C)C)[C@]1(OC(C)=O)CO[C@@H]1C[C@@H]2O` (stereo partly drawn) [Compound 2348] was below 1 nM.
With `CCCC(=O)O[C@H]1C(=O)[C@@]2(C)C([C@H](OC(=O)c3ccccc3)[C@]3(O)C[C@H](OC(=O)[C@H](O)[C@@H](NC(=O)OCC)c4ccco4)C(C)=C1C3(C)C)[C@]1(OC(C)=O)CO[C@@H]1C[C@@H]2O` (stereo partly drawn) [Compound 3693], in data set [1] (setting [2]), the IC50 is below 1 nM.
The same measure, in the same setting: to `CCC(=O)O[C@H]1C(=O)[C@@]2(C)C([C@H](OC(=O)c3ccccc3)[C@]3(O)C[C@H](OC(=O)[C@H](O)[C@@H](NC(=O)c4ccccc4)c4ccncc4)C(C)=C1C3(C)C)[C@]1(OC(C)=O)CO[C@@H]1C[C@@H]2O` (stereo partly drawn) [Compound 0659] belongs below 1 nM; to `CC(=O)O[C@@]12CO[C@@H]1C[C@H](O)[C@@]1(C)C(=O)[C@H](OC(=O)C3CC3)C3=C(C)[C@@H](OC(=O)[C@H](O)[C@@H](NC(=O)OCC(C)C)c4ccsc4)C[C@@](O)([C@@H](OC(=O)c4ccccc4)C12)C3(C)C` (stereo partly drawn) [Compound 5011], below 10 nM.
The same measure, in the same setting: the value for `C/C=C/C(=O)O[C@H]1C(=O)[C@@]2(C)C([C@H](OC(=O)c3ccccc3)[C@]3(O)C[C@H](OC(=O)[C@H](O)[C@@H](NC(=O)OC(C)(C)C)c4ccncc4)C(C)=C1C3(C)C)[C@]1(OC(C)=O)CO[C@@H]1C[C@@H]2O` (stereo partly drawn) [Compound 2366] was below 1 nM; that for `CCC(=O)O[C@H]1C(=O)[C@@]2(C)C([C@H](OC(=O)c3ccccc3)[C@]3(O)C[C@H](OC(=O)[C@H](O)[C@@H](NC(=O)c4ccco4)c4ccco4)C(C)=C1C3(C)C)[C@]1(OC(C)=O)CO[C@@H]1C[C@@H]2O` (stereo partly drawn) [Compound 3818] was below 1 nM; that for `CC(=O)O[C@@]12CO[C@@H]1C[C@H](O)[C@@]1(C)C(=O)[C@H](OC(=O)C3CC3)C3=C(C)[C@@H](OC(=O)[C@H](O)[C@@H](NC(=O)C=C(C)C)c4cccs4)C[C@@](O)([C@@H](OC(=O)c4ccccc4)C12)C3(C)C` (stereo partly drawn) [Compound 4329] was below 1 nM.
Same read-out and setting: the value for `CC(=O)OC12COC1CC(O)C1(C)C(=O)C(OC(=O)c3ccco3)C3=C(C)C(OC(=O)C(O)C(NC(=O)OC(C)(C)C)c4ccccn4)CC(O)(C(OC(=O)c4ccccc4)C21)C3(C)C` (stereo not drawn) [Compound 2111] was below 1 nM; that for `CCCC(=O)N[C@@H](c1cccs1)[C@@H](O)C(=O)O[C@H]1C[C@@]2(O)[C@@H](OC(=O)c3ccccc3)C3[C@](C)(C(=O)[C@H](OC(=O)C4CC4)C(=C1C)C2(C)C)[C@@H](O)C[C@H]1OC[C@@]31OC(C)=O` (stereo partly drawn) [Compound 3132] was below 1 nM; that for `CCCC(=O)OC1C(=O)C2(C)C(O)CC3OCC3(OC(C)=O)C2C(OC(=O)c2ccccc2)C2(O)CC(OC(=O)C(O)C(NC(=O)OC(C)(C)C)C3CC3)C(C)=C1C2(C)C` (stereo not drawn) [Compound 1020] was below 1 nM.
For `CC(=O)O[C@@]12CO[C@@H]1C[C@H](O)[C@@]1(C)C(=O)[C@H](OC(=O)C3CC3)C3=C(C)[C@@H](OC(=O)[C@H](O)[C@@H](NC(=O)OCC(C)C)c4cccs4)C[C@@](O)([C@@H](OC(=O)c4ccccc4)C12)C3(C)C` (stereo partly drawn) [Compound 3129], the IC50 in data set [1] (setting [2]) is below 10 nM.
On to `CCCC(=O)N[C@@H](c1cccs1)[C@@H](O)C(=O)O[C@H]1C[C@@]2(O)[C@@H](OC(=O)c3ccccc3)C3[C@](C)(C(=O)[C@H](OC(=O)CCC)C(=C1C)C2(C)C)[C@@H](O)C[C@H]1OC[C@@]31OC(C)=O` (stereo partly drawn) [Compound 3148], for which, in data set [1] (setting [2]), the IC50 is below 1 nM.

For orientation: melting point means the temperature, or range, at which the solid turns liquid.
